Entries after “also recorded” stand apart in the source; their conditions may differ.
Legend:
[1] = test system: Human Airway Epithelial cells infected with Pseudomonas; settings: in combination with tobramycin
Description: The impact of fumarate on Human Airway Epithelial cells was tested using an LDH assay. See Moreau-Marquis S, Tobramycin and FDA-Approved Iron Chelators Eliminate Pseudomonas aeruginosa Biofilms on Cystic Fibrosis Cells, Am. J. Respir. Cell Mol. Biol. Vol. 41, 305-313 (2009). LDH levels are measured in the medium (Apical and Basolateral fluids) and inside cells. Cytotoxicity can be expressed as: [LDHAP-BL/(LDHPAP-BL+LDHcells)]×100. […] Results are normalized to PAO1 untreated for 100% cytotoxicity. Significance (*) is between strain plus tobramycin and strain plus tobramycin with potentiator.

[2] = potentiation in artificial sputum media; assay type: cell-based; settings: 15 mM fumarate; with and without amino acids
Description: In the presence of artificial sputum media with and without amino acids, some tolerance is observed, but the potentiation of tobramycin with 15 mM fumarate remains an improvement of several logs (FIG. 9).

PAO1 strain = assay: potentiation assay in the presence of tobramycin and azithromycin; assay type: cell-based, Pseudomonas aeruginosa; settings: 15 mM fumarate
Description: (§1) The following examples use an in vitro potentiation assay, termed planktonic stationary phase (PSP) time kill assay. In this assay, bacterial cultures in planktonic stationary phase are used to select for bacterial persisters. Experiments are conducted using the time-kill method (CLSI M26), to evaluate bacterial strains, varying the concentration of aminoglycoside and potentiator. Cultures of persisters are generated by growing the bacteria in lysogeny broth (LB) medium for 16 hours. After 4 hr of exposure to the aminoglycoside plus potentiator combination in M9 minimal medium, cells are enumerated on LB plates.
The potentiation effect was tested in the presence of both tobramycin and azithromycin. […] Results are for PAO1 strain.

[3] = test system: PAO1 laboratory strains of Pseudomonas aeruginosa; assay: planktonic stationary phase (PSP) time kill potentiation assay, laboratory strain; assay type: cell-based
Description: as §1
Tobramycin has been measured at about 50 to 90 μg/ml of tobramycin in the lung epithelial lining after delivery of a 300 mg dose of tobramycin to cystic fibrosis patients by nebulizer. Ruddy J. et al., Sputum Tobramvcin Concentrations in Cystic Fibrosis Patients with Repeated Administration of Inhaled Tobramycin, J. of Aerosol Med. and Pulmon. Drug Del. 26(2):69-75 (2013).

[4] = potentiation in the presence of CF patient sputum; assay type: cell-based
[5] = test system: tobramycin-sensitive COPD clinical isolates; assay: PSP potentiation assay with COPD clinical isolates; assay type: cell-based, Pseudomonas aeruginosa; settings: 15 mM fumarate; early or late stage COPD isolates
naïve bacterial biofilm [6] = assay: 96-well plate biofilm assay; assay type: cell-based; settings: 15 mM fumarate, naïve cultures
Description: (§2) The potentiation effect for tobramycin was tested in two biofilm assays: colony biofilm assay and 96-well plate biofilm assay.

[7] = test system: P. aeruginosa mucoid and non-mucoid CF clinical isolates; assay: colony biofilm assay with CF clinical isolates; assay type: cell-based; settings: fumarate with tobramycin
Description: as §2

naïve bacterial biofilm [8] = assay: colony biofilm assay; assay type: cell-based; settings: 15 mM fumarate, naïve cultures
Description: as §2

[9] = cited from earlier work

SMILES | fumarate concentration with potential to decrease airway inflammation [1] | potentiation of tobramycin in artificial sputum media [2] | potentiation of tobramycin in the presence of azithromycin (PAO1 strain) | potentiation of tobramycin sensitivity in the persister assay ([3]; 15 mM fumarate, PAO1, 4 hr exposure in M9 minimal medium) | potentiation in the presence of CF sputum [4] [logs] | potentiation of tobramycin action against COPD strains [5] | potentiation of tobramycin in 96-well plate biofilm assay (naïve bacterial biofilm [6]) | effect on P. aeruginosa in colony biofilms from CF clinical isolates [7] | potentiation of tobramycin in colony biofilm assay (naïve bacterial biofilm [8]) | tobramycin concentration at which maximum bactericidal activity was observed ([3]; with 15 mM fumarate (Met1)) [µg/mL] | mean tobramycin concentration in expectorated sputum ([9]; 10 minutes after delivery of 300 mg by nebulizer, CF patients) | tobramycin concentration in the lung epithelial fluid (induced sputum), estimated ([9]; after 300 mg delivered by nebulizer) [µg/g]
O=C(O)/C=C/C(=O)O [fumarate] | above 7.5 mM | several logs | over 3 logs | over 5 logs | 3 | effective to potentiate tobramycin action against all COPD strains tested | potentiates tobramycin action; also recorded: shows potentiation of tobramycin | eradication of P. aeruginosa | potentiates tobramycin action; also recorded: shows potentiation of tobramycin |  |  | 
NC[C@H]1O[C@H](O[C@H]2[C@H](O)[C@@H](O[C@H]3O[C@H](CO)[C@@H](O)[C@H](N)[C@H]3O)[C@H](N)C[C@@H]2N)[C@H](N)C[C@@H]1O [tobramycin] |  |  |  |  |  |  |  |  |  | 16 | 1,237 μg/g of sputum | ~128
